{"source": "paper PMC9666501", "about": "“Screening for effective cell-penetrating peptides with minimal impact on epithelial cells and gut commensals in vitro” (Frontiers in Pharmacology, 2022)", "key": {"Caco-2 cells [1]": {"system": "Caco-2 cells", "format": "cell-based", "settings": "CPP 1, 5, 10, 50, 100 µM in DMEM, 1 h treatment (legend; method says 2 h), 37°C, Incucyte imaging, n = 2", "method": "Caco-2 cells were seeded (6 × 10^3 cells/well) in Corning™ Costar™ 96-Well, Cell Culture-Treated, Flat-Bottom Microplate and grown at 37°C with 5% CO2 until reaching confluence. […] Fluorescence was measured with microplate reader Synergy™ H1 BioTek; (excitation wavelength: 560 nm, emission wavelength: 590 nm) and a curve of Relative Fluorescence Units (RFU) against different concentrations of CPPs was plotted.\n[…] The cells were then imaged using the Incucyte® Live-Cell analysis instrument. Cytotox Red dye dilution: The dye was diluted to a stock concentration of 100 µM in PBS. This was further diluted in full media to yield a final concentration of 250 nM before adding to the cells."}, "Caco-2 cells [2]": {"system": "Caco-2 cells", "assay": "AlamarBlue cell viability assay", "format": "cell-based, human", "settings": "CPP 5 µM, 1 h treatment (legend; method says 2 h), 37°C, fluorescence 560/590 nm, n = 3", "method": "Caco-2 cells were seeded (6 × 10^3 cells/well) in Corning™ Costar™ 96-Well, Cell Culture-Treated, Flat-Bottom Microplate and grown at 37°C with 5% CO2 until reaching confluence. For alamarBlue cell viability staining, cells were exposed to treatments (DMEM + AlamarBlue (10 µL) + CPPs) at different concentrations and incubated for 2 h at 37°C with 5% CO2. Fluorescence was measured with microplate reader Synergy™ H1 BioTek; (excitation wavelength: 560 nm, emission wavelength: 590 nm) and a curve of Relative Fluorescence Units (RFU) against different concentrations of CPPs was plotted."}, "Caco-2 monolayers [3]": {"system": "Caco-2 monolayers", "assay": "FITC-dextran translocation assay", "format": "cell-based, human", "settings": "Caco-2 monolayers 21 days; each CPP at a concentration without cytotoxicity, apical, 1 h, 37 °C, pH 7.4; then 1 mg/ml FITC-dextran 4 for 30 min; fluorescence; n = 3", "method": "For Fluorescein Isothiocyanate (FITC)-Dextran permeability experiments, Caco-2 monolayers differentiated for 21 days were transferred to 12-well plates containing 1.5 ml phenol red free DMEM media (pH 7.4) in the basal compartments. For the treatment, medium in the apical compartment was replaced by 0.5 ml phenol red free DMEM medium containing different concentrations of CPPs, and the plates were incubated at 37 °C for 1 h. Post treatment, inserts were transferred to a new 12-well plate containing 1.5 ml fresh phenol red free DMEM and the apical medium was replaced by medium containing 1 mg/ml FITC-dextran 4 (Sigma-Aldrich). The incubation with the permeability marker lasted for 30 min. Samples were collected from the basolateral compartments post incubation and fluorescence was measured using multi-well fluorescent plate reader (Synergy; excitation wavelength: 490 nm, emission wavelength: 520 nm). The concentration of FITC-dextran in the samples was calculated by comparing the relative fluorescence values to the FITC-dextran standard curve. The apparent permeability coefficient (Papp, cm/s) was calculated according to Eq. 1. Papp=dQ/dt×1/(A×C0), (1) Where dQ/dt is the drug permeation rate (μg/s); a is the surface area of the inserts (cell monolayer) (cm^2); and C0 is the initial concentration at the apical side (μg/ml)."}, "[4]": {"system": "Bacteroides thetaiotaomicron DSM 2079", "assay": "Broth microdilution antimicrobial assay", "format": "cell-based", "settings": "B. thetaiotaomicron; microbroth dilution in mGAM, anaerobic, 37 °C, 24 h, OD600; CPP 0.01-100 µM", "method": "(§1) Gut commensal microbial strains used in this study (Table 2) were purchased from […] (ATCC) and DSMZ, Germany. The growth and screening experiments were performed in modified Gifu Anaerobic Medium (mGAM) (HyServe GmbH and Co.) as all the strains could grow well in this media. mGAM was pre-reduced for a minimum of 1 day in the anaerobic chamber (Coy laboratory products Inc.) before use.\n(§2) The antimicrobial effects of CPPs were determined by performing microbroth dilution method. The overnight cultures of the strains were diluted 100-fold in mGAM broth and 100 µL of the diluted cultured were distributed in the 96-well microplate. Next, 100 µL of CPPs in their respective concentrations were added to respective wells. Plates were incubated aerobically (Escherichia coli Nissle, Escherichia coli K12, and Saccharomyces boulardii) or anaerobically (rest of the strains) at 37 °C for 24 h with or without shaking, respectively. Reading of each plate was performed by measuring the optical density (OD) at 600 nm in a microplate reader (Synergy™ H1 BioTek). The final absorbance values were normalized and represented as values between 0 and 1 as a heat map, where 0 being full inhibition and 1 being no inhibition. The MIC was determined as the minimum concentration of the CPPs at which no significant growth of the strain was observed as compared to medium only (blank)."}, "[5]": {"system": "Bacteroides vulgatus ATCC 8482", "assay": "Broth microdilution antimicrobial assay", "format": "cell-based", "settings": "B. vulgatus; microbroth dilution in mGAM, anaerobic, 37 °C, 24 h, OD600; CPP 0.01-100 µM", "method": "as §1, §2"}, "[6]": {"system": "Bifidobacterium adolescentis DSM 20083", "assay": "Broth microdilution antimicrobial assay", "format": "cell-based", "settings": "microbroth dilution in mGAM, anaerobic, 37 °C, 24 h, OD600, CPP 0.01-100 µM", "method": "as §1, §2"}, "[7]": {"system": "Bifidobacterium longum ATCC 15697", "assay": "Broth microdilution antimicrobial assay", "format": "cell-based", "settings": "microbroth dilution in mGAM, anaerobic, 37 °C, 24 h, OD600, CPP 0.01-100 µM", "method": "as §1, §2"}, "[8]": {"system": "Clostridium bolteae DSM 29485", "assay": "Broth microdilution antimicrobial assay", "format": "cell-based", "settings": "microbroth dilution in mGAM, anaerobic, 37 °C, 24 h, OD600, CPP 0.01-100 µM", "method": "as §1, §2"}, "[9]": {"system": "Escherichia coli K12 MG 1655", "assay": "Broth microdilution antimicrobial assay", "format": "cell-based", "settings": "microbroth dilution in mGAM, aerobic with shaking, 37 °C, 24 h, OD600, CPP 0.01-100 µM", "method": "as §1, §2"}, "[10]": {"system": "Escherichia coli Nissle 1917 (Mutaflor)", "assay": "Broth microdilution antimicrobial assay", "format": "cell-based", "settings": "microbroth dilution in mGAM, aerobic with shaking, 37 °C, 24 h, OD600, CPP 0.01-100 µM", "method": "as §1, §2"}, "[11]": {"system": "Lactobacillus gasseri DSM 20077", "assay": "Broth microdilution antimicrobial assay", "format": "cell-based", "settings": "microbroth dilution in mGAM, anaerobic, 37 °C, 24 h, OD600, CPP 0.01-100 µM", "method": "as §1, §2"}, "[12]": {"system": "Latilactobacillus sakei ATCC 15521", "assay": "Broth microdilution antimicrobial assay", "format": "cell-based", "settings": "microbroth dilution in mGAM, anaerobic, 37 °C, 24 h, OD600, CPP 0.01-100 µM", "method": "as §1, §2"}, "[13]": {"system": "10 commensal gut microbial strains", "assay": "Broth microdilution antimicrobial assay, panel summary", "format": "cell-based", "settings": "range over the strains that were totally inhibited; mGAM, 37 °C, 24 h", "method": "as §1, §2"}, "Caco-2 monolayers [14]": {"system": "Caco-2 monolayers", "settings": "CPP 3 µM; ref Bocsik et al in 2019; cited from earlier work", "method": "In the present work we systematically screened for effective CPPs that promote intestinal permeation through paracellular route and have negligible or no harmful effects against human epithelial cells and gut microbial strains. […] The results from the cytotoxicity and cell viability assays were in concordance except for RRL helix and PN159 at 5 µM. This minor difference most likely has to do with the sensitivity of the assay. The reducing capacity of the cells (as measured by AlamarBlue) is not the same as membrane integrity (as measured by Cytotoxic Red)."}}, "note": "“Also recorded” adds a separate entry of the source.", "data": [{"smiles": "CC(C)C[C@H](NC(=O)[C@H](C)NC(=O)[C@H](CCCCN)NC(=O)[C@H](CC(C)C)NC(=O)[C@H](C)NC(=O)[C@H](CC(C)C)NC(=O)[C@H](CCCCN)NC(=O)[C@H](CC(C)C)NC(=O)[C@H](C)NC(=O)[C@H](CC(C)C)NC(=O)[C@@H](N)CCCCN)C(=O)N[C@@H](CCCCN)C(=O)N[C@@H](C)C(=O)N[C@@H](C)C(=O)N[C@@H](CC(C)C)C(=O)N[C@@H](CCCCN)C(=O)N[C@@H](CC(C)C)C(=O)N[C@@H](C)C(N)=O", "note": "[PN159]", "values": [{"measurement": "Cytotoxicity (Cytotox Red dye staining, dead cells)", "setting": "Caco-2 cells [1]", "value": "toxic at 5 µM; also recorded: Toxicity from 5 μM"}, {"measurement": "Cell viability (AlamarBlue, % live cells vs control)", "setting": "Caco-2 cells [2]", "value": "no significant toxic effect; also recorded: no significant effect on cell viability"}, {"measurement": "Paracellular permeability of FITC-dextran (Papp A-B)", "setting": "Caco-2 monolayers [3]", "value": "highest paracellular permeability"}, {"measurement": "Minimum inhibitory concentration (MIC)", "setting": "[4]", "value": 10, "unit": "µM"}, {"measurement": "Minimum inhibitory concentration (MIC)", "setting": "[5]", "value": 10, "unit": "µM"}, {"measurement": "Minimum inhibitory concentration (MIC)", "setting": "[6]", "value": 10, "unit": "µM"}, {"measurement": "Minimum inhibitory concentration (MIC)", "setting": "[7]", "value": 1, "unit": "µM"}, {"measurement": "Minimum inhibitory concentration (MIC)", "setting": "[8]", "value": 1, "unit": "µM"}, {"measurement": "Minimum inhibitory concentration (MIC)", "setting": "[9]", "value": 5, "unit": "µM"}, {"measurement": "Minimum inhibitory concentration (MIC)", "setting": "[10]", "value": 50, "unit": "µM"}, {"measurement": "Minimum inhibitory concentration (MIC)", "setting": "[11]", "value": 5, "unit": "µM"}, {"measurement": "Minimum inhibitory concentration (MIC)", "setting": "[12]", "value": 1, "unit": "µM"}, {"measurement": "MICs over the totally inhibited strains of the panel", "setting": "[13]", "value": "1 to 50", "unit": "µM"}, {"measurement": "Paracellular permeability of Caco-2 monolayers via tight junction modulation", "setting": "Caco-2 monolayers [14]", "value": "significantly improve paracellular permeability of Caco-2 monolayers"}]}]}
